Data from publication PMC9454456 (Journal of Nuclear Medicine, 2022).

Tests used:
physchem = type: physicochemical; settings: pH 7.4
Description: The layers were separated by centrifugation at 2,000 rpm (416g) for 5 min. Aliquots of 100 μL were removed from each phase and measured in a Wizard γ-counter (PerkinElmer). Calculated logD7.4 values were expressed as the mean ± SD from 3 experiments.

NTR1 = target: T1, NTR1 (Homo sapiens, UniProt P30989); assay: Competitive receptor binding assay in NTR1-positive PC3 cells; settings: 37 kBq tracer, NT 10^-8–10^2 μM as competitive inhibitor, 60 min, 37°C, γ-counter, mean ± SD, read-out: half-maximal inhibitory concentration
T1 construct: endogenous in cells; host or cells: PC3 human prostate adenocarcinoma cells
Description: After incubation for 60 min at 37°C, the medium of each well was removed and the cells were washed twice with PBS. The removed medium and washing PBS were collected to represent the amount of free radioligand. The adherent cells were lysed with NaOH (0.1 M, 200 μL) and harvested after being washed twice by PBS. Finally, the cell-bound radioactivity (3 × 10^5 cells/mL) and the amount of free radioligand were measured in a γ-counter. The half-maximal inhibitory concentration was calculated using GraphPad Prism software. […] The radioactivity of adherent cells (3 × 10^5 cells/mL) was then measured after they were extracted with NaOH (0.1 M, 200 μL) and washed twice with PBS.

in vivo [1] = assay: in vivo; set-up: species or system mice; settings: mouse, iv, 3.4 MBq, total radioactivity, Biodistribution
Description: Blood and major organs were harvested immediately, weighed, and counted using a γ-counter. The radioactivity of each sample was calculated as the percentage of injected dose per gram of tissue (%ID/g) and corrected for radioactive decay.

PC3-xenografted mice [2] = settings: mouse, in vivo
Description: (§1) Images were reconstructed using 3-dimensional ordered-subset expectation maximization with attenuation correction. Regions of interest were drawn over the tumors and main organs, and average signal levels in the regions were measured using an Inveon Research Workplace workstation.

in vivo [3] = settings: mouse, iv, 7.4 MBq, total radioactivity
Description: as §1

PC3-xenografted mice [4] = assay: Small-animal PET/CT imaging, PC3 xenografts; settings: PC3 xenograft, 7.4 MBq i.v., 1 h after injection, mean ± SD
Description: as §1

LNCap-xenografted mice = assay: Small-animal PET/CT imaging, LNCap xenografts; settings: LNCap xenograft, 7.4 MBq i.v., 1 h after injection, mean ± SD
Description: as §1

T1 sequence (P30989 whole entry): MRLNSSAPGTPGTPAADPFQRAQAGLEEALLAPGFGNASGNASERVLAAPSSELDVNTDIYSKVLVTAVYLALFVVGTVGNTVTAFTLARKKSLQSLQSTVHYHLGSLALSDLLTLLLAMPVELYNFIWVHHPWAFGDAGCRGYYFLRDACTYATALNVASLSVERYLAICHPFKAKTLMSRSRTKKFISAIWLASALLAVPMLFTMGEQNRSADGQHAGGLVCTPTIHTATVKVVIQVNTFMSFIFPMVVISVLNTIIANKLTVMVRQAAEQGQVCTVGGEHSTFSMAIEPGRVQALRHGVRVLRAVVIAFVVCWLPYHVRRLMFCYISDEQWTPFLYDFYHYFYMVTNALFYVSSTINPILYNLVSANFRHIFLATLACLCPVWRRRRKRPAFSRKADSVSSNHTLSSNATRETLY

Molecule `CC(=O)NC(CCCCNC(=O)CN1CCN(CC(=O)O)CCN(CC(=O)O)CCN(CC(=O)O)CC1)C(=O)N1CCCC1C(=O)N(C)C(CCCNC(=N)N)C(=O)NC(CCCNC(=N)N)C(=O)N1CCCC1C(=O)NC(Cc1ccc(O)cc1)C(=O)NC(C(=O)NC(CC(C)C)C(=O)O)C(C)(C)C` (centres unmarked) [^68Ga-DOTA-NT-20.3, metal not drawn] has a logD (physchem) of -3.68 ± 0.14, an IC50 (NTR1) of 7.59 ± 0.41 nM and a tissue uptake at 5 min (in vivo [1]; Blood) of 8.11 ± 1.54 %ID/g. It also gave a tissue uptake at 0.25 h (in vivo [1]; Blood) of 4.15 ± 0.59 %ID/g, a tissue uptake at 0.5 h (in vivo [1]; Blood) of 2.56 ± 0.23 %ID/g and a tissue uptake at 1 h (in vivo [1]; Blood) of 1.12 ± 0.22 %ID/g. It also gave a tissue uptake at 2 h (in vivo [1]; Blood) of 0.43 ± 0.08 %ID/g, a tissue uptake at 5 min (in vivo [1]; Bone) of 2.27 ± 0.29 %ID/g and a tissue uptake at 0.25 h (in vivo [1]; Bone) of 2.35 ± 0.52 %ID/g. The tissue uptake at 0.5 h (in vivo [1]; Bone) was 1.27 ± 0.08 %ID/g, the tissue uptake at 1 h (in vivo [1]; Bone) was 0.86 ± 0.17 %ID/g and the tissue uptake at 2 h (in vivo [1]; Bone) was 0.53 ± 0.17 %ID/g. It also gave a tissue uptake at 5 min (in vivo [1]; Brain) of 1.91 ± 0.39 %ID/g, a tissue uptake at 0.25 h (in vivo [1]; Brain) of 1.35 ± 0.15 %ID/g and a tissue uptake at 0.5 h (in vivo [1]; Brain) of 0.88 ± 0.1 %ID/g. It also gave a tissue uptake at 1 h (in vivo [1]; Brain) of 0.6 ± 0.05 %ID/g, a tissue uptake at 2 h (in vivo [1]; Brain) of 0.33 ± 0.1 %ID/g and a tissue uptake at 5 min (in vivo [1]; Fat) of 1.42 ± 0.23 %ID/g. It also gave a tissue uptake at 0.25 h (in vivo [1]; Fat) of 1.11 ± 0.23 %ID/g, a tissue uptake at 0.5 h (in vivo [1]; Fat) of 0.62 ± 0.11 %ID/g and a tissue uptake at 1 h (in vivo [1]; Fat) of 0.32 ± 0.03 %ID/g. It also gave a tissue uptake at 2 h (in vivo [1]; Fat) of 0.32 ± 0.07 %ID/g, a tissue uptake at 5 min (in vivo [1]; Heart) of 7.7 ± 0.9 %ID/g and a tissue uptake at 0.25 h (in vivo [1]; Heart) of 3.88 ± 0.18 %ID/g. The tissue uptake at 0.5 h (in vivo [1]; Heart) was 2.78 ± 0.36 %ID/g, the tissue uptake at 1 h (in vivo [1]; Heart) was 1.57 ± 0.18 %ID/g and the tissue uptake at 2 h (in vivo [1]; Heart) was 0.58 ± 0.11 %ID/g. For the same molecule, the tissue uptake at 5 min (in vivo [1]; Intestine) was 3.28 ± 0.3 %ID/g, the tissue uptake at 0.25 h (in vivo [1]; Intestine) was 2.31 ± 0.92 %ID/g and the tissue uptake at 0.5 h (in vivo [1]; Intestine) was 1.47 ± 0.26 %ID/g. It also gave a tissue uptake at 1 h (in vivo [1]; Intestine) of 0.77 ± 0.24 %ID/g, a tissue uptake at 2 h (in vivo [1]; Intestine) of 0.38 ± 0.04 %ID/g and a tissue uptake at 5 min (in vivo [1]; Kidney) of 18.4 ± 1.27 %ID/g. It also gave a tissue uptake at 0.25 h (in vivo [1]; Kidney) of 21.2 ± 1.95 %ID/g, a tissue uptake at 0.5 h (in vivo [1]; Kidney) of 23.1 ± 1.94 %ID/g and a tissue uptake at 1 h (in vivo [1]; Kidney) of 24.6 ± 0.98 %ID/g. For the same molecule, the tissue uptake at 2 h (in vivo [1]; Kidney) was 26.1 ± 0.79 %ID/g, the tissue uptake at 5 min (in vivo [1]; Liver) was 5.46 ± 1.01 %ID/g and the tissue uptake at 0.25 h (in vivo [1]; Liver) was 3.17 ± 0.45 %ID/g. It also gave a tissue uptake at 0.5 h (in vivo [1]; Liver) of 2.02 ± 0.48 %ID/g, a tissue uptake at 1 h (in vivo [1]; Liver) of 1.44 ± 0.2 %ID/g and a tissue uptake at 2 h (in vivo [1]; Liver) of 0.86 ± 0.49 %ID/g. The tissue uptake at 5 min (in vivo [1]; Lung) was 5.18 ± 0.16 %ID/g, the tissue uptake at 0.25 h (in vivo [1]; Lung) was 3.28 ± 0.62 %ID/g and the tissue uptake at 0.5 h (in vivo [1]; Lung) was 1.91 ± 0.15 %ID/g. The tissue uptake at 1 h (in vivo [1]; Lung) was 1.2 ± 0.23 %ID/g, the tissue uptake at 2 h (in vivo [1]; Lung) was 0.75 ± 0.15 %ID/g and the tissue uptake at 5 min (in vivo [1]; Muscle) was 1.93 ± 0.65 %ID/g. The tissue uptake at 0.25 h (in vivo [1]; Muscle) was 1.44 ± 0.17 %ID/g, the tissue uptake at 0.5 h (in vivo [1]; Muscle) was 0.96 ± 0.08 %ID/g and the tissue uptake at 1 h (in vivo [1]; Muscle) was 0.51 ± 0.02 %ID/g. For the same molecule, the tissue uptake at 2 h (in vivo [1]; Muscle) was 0.32 ± 0.04 %ID/g, the tissue uptake at 5 min (in vivo [1]; Pancreas) was 2.88 ± 0.61 %ID/g and the tissue uptake at 0.25 h (in vivo [1]; Pancreas) was 2.03 ± 0.26 %ID/g. It also gave a tissue uptake at 0.5 h (in vivo [1]; Pancreas) of 1.59 ± 0.6 %ID/g, a tissue uptake at 1 h (in vivo [1]; Pancreas) of 1.05 ± 0.07 %ID/g and a tissue uptake at 2 h (in vivo [1]; Pancreas) of 0.36 ± 0.04 %ID/g. It also gave a tissue uptake at 5 min (in vivo [1]; Spleen) of 3.97 ± 0.39 %ID/g, a tissue uptake at 0.25 h (in vivo [1]; Spleen) of 2.81 ± 0.47 %ID/g and a tissue uptake at 0.5 h (in vivo [1]; Spleen) of 1.85 ± 0.43 %ID/g. The tissue uptake at 1 h (in vivo [1]; Spleen) was 1.06 ± 0.27 %ID/g, the tissue uptake at 2 h (in vivo [1]; Spleen) was 0.41 ± 0.04 %ID/g and the tissue uptake at 5 min (in vivo [1]; Stomach) was 3.56 ± 0.31 %ID/g. It also gave a tissue uptake at 0.25 h (in vivo [1]; Stomach) of 2.49 ± 0.35 %ID/g, a tissue uptake at 0.5 h (in vivo [1]; Stomach) of 1.75 ± 0.38 %ID/g and a tissue uptake at 1 h (in vivo [1]; Stomach) of 0.91 ± 0.18 %ID/g. It also gave a tissue uptake at 5 min (in vivo [1]; Testis) of 1.62 ± 0.11 %ID/g, a tissue uptake at 0.25 h (in vivo [1]; Testis) of 1.31 ± 0.05 %ID/g and a tissue uptake at 0.5 h (in vivo [1]; Testis) of 0.8 ± 0.06 %ID/g. The tissue uptake at 1 h (in vivo [1]; Testis) was 0.42 ± 0.04 %ID/g, the tissue uptake at 2 h (in vivo [1]; Testis) was 0.31 ± 0.1 %ID/g and the tissue uptake at 5 min (in vivo [1]; Tumor) was 2.81 ± 0.39 %ID/g. For the same molecule, the tissue uptake at 0.25 h (in vivo [1]; Tumor) was 3.93 ± 0.43 %ID/g, the tissue uptake at 0.5 h (in vivo [1]; Tumor) was 5.7 ± 0.8 %ID/g and the tissue uptake at 1 h (in vivo [1]; Tumor) was 6.26 ± 0.41 %ID/g. For the same molecule, the tissue uptake at 2 h (in vivo [1]; Tumor) was 3.74 ± 0.56 %ID/g, the tumor retention time (PC3-xenografted mice [2]) was “up to 4 h” and the tissue uptake at 0.5 h (in vivo [3]) was 4.53 ± 1.26 %ID/g.
In the case of `O=C([O-])CN(CCN(CC(=O)[O-])Cc1cc(CCC(=O)NCCCCCC(=O)NCCCC[C@H](NC(=O)N[C@@H](CCC(=O)O)C(=O)O)C(=O)O)ccc1[O-])Cc1cc(CCC(=O)O)ccc1[O-].[68Ga+3].[OH3+]` [^68Ga-PSMA-11], the “tumor uptake (PET region of interest)” value (PC3-xenografted mice [4]) is reported as 0.53 ± 0.05 %ID/g and the “tumor uptake (PET region of interest)” value (LNCap-xenografted mice) is reported as 8.60 ± 2.11 %ID/g.
